In patent US20240246937A1 (MERCK SHARP & DOHME LLC, priority 2021, published 2024):

Target: recombinant IL4I1 (Homo sapiens (Human), UniProt Q96RQ9)
Test: IL4I1 Enzymatic Assay (Amplex Red/HRP coupled fluorescence detection of H2O2)
Format: biochemical
Settings: 240 min; recombinant IL4I1, four-hour pre-incubation with compound
Outline: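 Recombinant human IL4I1 (1 nM final) pre-incubated 4 h with compound at ambient temperature in 50 mM Hepes pH 7.0, 0.005% Tween20. Started with 1 mM each Phe/Tyr/Trp plus Amplex Red/HRP; H2O2-derived resorufin fluorescence read after 120 min; EC50 from ten-point 1:3 titration, four-parameter fit.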

Chain of recombinant IL4I1 (Q96RQ9 22-567): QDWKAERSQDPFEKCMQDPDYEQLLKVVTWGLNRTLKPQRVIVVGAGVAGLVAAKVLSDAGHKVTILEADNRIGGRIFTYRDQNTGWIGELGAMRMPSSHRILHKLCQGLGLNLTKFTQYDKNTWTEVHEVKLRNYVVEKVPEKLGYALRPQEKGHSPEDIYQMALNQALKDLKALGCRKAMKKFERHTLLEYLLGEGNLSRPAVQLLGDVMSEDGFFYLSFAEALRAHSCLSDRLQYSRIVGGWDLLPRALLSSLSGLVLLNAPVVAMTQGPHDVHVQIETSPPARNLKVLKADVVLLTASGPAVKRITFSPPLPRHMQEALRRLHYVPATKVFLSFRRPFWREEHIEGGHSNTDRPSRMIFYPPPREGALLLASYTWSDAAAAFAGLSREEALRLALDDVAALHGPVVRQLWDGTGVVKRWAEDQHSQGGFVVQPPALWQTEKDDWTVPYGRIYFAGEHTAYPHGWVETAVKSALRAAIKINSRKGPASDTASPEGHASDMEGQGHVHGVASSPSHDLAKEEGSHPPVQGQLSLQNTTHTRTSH

## O=C1C(=O)N(C23CC(F)(C2)C3)CCN1Cc1nnc(-c2ccccc2)s1 [Example 294, 1-(3-fluorobicyclo[1.1.1]pentan-1-yl)-4-((5-phenyl-1,3,4-thiadiazol-2-yl)methyl)piperazine-2,3-dione]
  EC50: 16 nM

## CC(C)(C)CN1CCN(Cc2ncc(-c3ccccc3)cn2)C(=O)C1=O [Example 287, 1-neopentyl-4-((5-phenylpyrimidin-2-yl)methyl)piperazine-2,3-dione]
  EC50: 34 nM

## O=c1c(=O)n(C23CC(C2)C3)ccn1Cc1ccc(-n2ccnn2)nn1 [Example 404, 1-((6-(1H-1,2,3-triazol-1-yl)pyridazin-3-yl)methyl)-4-(bicyclo[1.1.1]pentan-1-yl)-1,4-dihydropyrazine-2,3-dione]
  EC50: 10 nM

## O=C1C(=O)N(C2CC(c3ccccc3)C2)CCN1Cc1ccc(-c2ccccc2)nn1 (centres unmarked) [Example 7, 1-(3-phenylcyclobutyl)-4-((6-phenylpyridazin-3-yl)methyl)piperazine-2,3-dione]
  EC50: 9 nM

## O=C1C(=O)N(C2CCCC2)CCN1Cc1ccc(N2CCC(F)C2)nc1 (centres unmarked) [Example 393, 1-cyclopentyl-4-((6-(3-fluoropyrrolidin-1-yl)pyridin-3-yl)methyl)piperazine-2,3-dione]
  EC50: 33 nM

## O=C1C(=O)N([C@H]2C[C@H](c3ccccc3)C2)CCN1Cc1ccc(-c2ccccc2)nn1 [Example 96A, trans-1-(3-phenylcyclobutyl)-4-((6-phenylpyridazin-3-yl)methyl)piperazine-2,3-dione]
  EC50: 14 nM

## O=c1c(=O)n(C2CCCC2)ccn1Cc1cc(-c2ccccc2F)no1 [Example 156, 1-cyclopentyl-4-((3-(2-fluorophenyl)isoxazol-5-yl)methyl)-1,4-dihydropyrazine-2,3-dione]
  EC50: 2 nM

## CC1(n2ccn(Cc3cc(-c4cccnc4)on3)c(=O)c2=O)CC1 [Example 209, 1-(1-methylcyclopropyl)-4-((5-(pyridin-3-yl)isoxazol-3-yl)methyl)-1,4-dihydropyrazine-2,3-dione]
  EC50: 26 nM

## O=c1c(=O)n(C2CCCC2)ccn1Cc1ncc(-c2ccccc2)cn1 [Example 337, 1-cyclopentyl-4-((5-phenylpyrimidin-2-yl)methyl)-1,4-dihydropyrazine-2,3-dione]
  EC50: 15 nM

## N#CC1(n2ccn(Cc3ccc(-n4cccn4)nc3)c(=O)c2=O)CC1 [Example 389, 1-(4-((6-(1H-pyrazol-1-yl)pyridin-3-yl)methyl)-2,3-dioxo-3,4-dihydropyrazin-1(2H)-yl)cyclopropane-1-carbonitrile]
  EC50: 369 nM

## O=C1C(=O)N(C2CCCC2)CCN1Cc1ccc(N2CCC(F)(F)C2)nc1 [Example 392, 1-cyclopentyl-4-((6-(3,3-difluoropyrrolidin-1-yl)pyridin-3-yl)methyl)piperazine-2,3-dione]
  EC50: 31 nM

## CC(c1ncc(-c2ccccc2)cn1)N1CCN(C2CCCC2)C(=O)C1=O (single isomer, unassigned) [Example 133, (R or S)-1-cyclopentyl-4-(1-(5-phenylpyrimidin-2-yl)ethyl)piperazine-2,3-dione]
  EC50: 22 nM

## O=c1c(=O)n(C2CCC2)ccn1Cc1ccc(-c2c(F)cccc2F)nn1 [Example 192, 1-cyclobutyl-4-((6-(2,6-difluorophenyl)pyridazin-3-yl)methyl)-1,4-dihydropyrazine-2,3-dione]
  EC50: 13 nM

## O=c1c(=O)n(C2(CF)CC2)ccn1Cc1ccc(-c2cncs2)nn1 [Example 245, 1-(1-(fluoromethyl)cyclopropyl)-4-((6-(thiazol-5-yl)pyridazin-3-yl)methyl)-1,4-dihydropyrazine-2,3-dione]
  EC50: 43 nM

## O=C1C(=O)N(C2CCCC2)CCN1Cc1cc(-c2ccccc2F)on1 [Example 60, 1-cyclopentyl-4-((5-(2-fluorophenyl)isoxazol-3-yl)methyl)piperazine-2,3-dione]
  EC50: 10 nM

## CC1(n2ccn(Cc3cc(-c4cccc(F)c4)no3)c(=O)c2=O)CCC1 [Example 186, 1-((3-(3-fluorophenyl)isoxazol-5-yl)methyl)-4-(1-methylcyclobutyl)-1,4-dihydropyrazine-2,3-dione]
  EC50: 4 nM

## CCOc1ccc(CN2CCN(C3CCCC3)C(=O)C2=O)nn1 [Example 340, 1-cyclopentyl-4-((6-ethoxypyridazin-3-yl)methyl)piperazine-2,3-dione]
  EC50: 70 nM

## CC1(N2CCN(Cc3nnc(-c4ccccc4)s3)C(=O)C2=O)CC1 [Example 303, 1-(1-methylcyclopropyl)-4-((5-phenyl-1,3,4-thiadiazol-2-yl)methyl)piperazine-2,3-dione]
  EC50: 28 nM

## N#CC1(n2ccn(Cc3ccc(-n4ccnn4)cn3)c(=O)c2=O)CC1 [Example 387, 1-(4-((5-(1H-1,2,3-triazol-1-yl)pyridin-2-yl)methyl)-2,3-dioxo-3,4-dihydropyrazin-1(2H)-yl)cyclopropane-1-carbonitrile]
  EC50: 677 nM

## O=C1C(=O)N(C23CC(C2)C3)CCN1Cc1cc(-c2ccccc2)on1 [Example 146, 1-(bicyclo[1.1.1]pentan-1-yl)-4-((5-phenylisoxazol-3-yl)methyl)piperazine-2,3-dione]
  EC50: 3 nM

## O=c1c(=O)n(C2CCC2)ccn1Cc1cnc(-c2ccccc2)cn1 [Example 127, 1-cyclobutyl-4-((5-phenylpyrazin-2-yl)methyl)-1,4-dihydropyrazine-2,3-dione]
  EC50: 3 nM

## O=c1c(=O)n(C23CC(F)(C2)C3)ccn1Cc1ccc(-n2nccn2)nc1 [Example 255, 1-((6-(2H-1,2,3-triazol-2-yl)pyridin-3-yl)methyl)-4-(3-fluorobicyclo[1.1.1]pentan-1-yl)-1,4-dihydropyrazine-2,3-dione]
  EC50: 47 nM

## N#CC1(n2ccn(Cc3cc(-c4ccccn4)no3)c(=O)c2=O)CC1 [Example 200, 1-(2,3-dioxo-4-((3-(pyridin-2-yl)isoxazol-5-yl)methyl)-3,4-dihydropyrazin-1(2H)-yl)cyclopropane-1-carbonitrile]
  EC50: 68 nM

## O=c1c(=O)n(C23CC(C2)C3)ccn1Cc1ccc(-n2cccn2)nc1 [Example 384, 1-((6-(1H-pyrazol-1-yl)pyridin-3-yl)methyl)-4-(bicyclo[1.1.1]pentan-1-yl)-1,4-dihydropyrazine-2,3-dione]
  EC50: 9 nM

## O=c1c(=O)n(C23CC(C2)C3)ccn1Cc1ccc(-c2cccnc2)nn1 [Example 85, 1-(bicyclo[1.1.1]pentan-1-yl)-4-((6-(pyridin-3-yl)pyridazin-3-yl)methyl)-1,4-dihydropyrazine-2,3-dione]
  EC50: 29 nM

## O=C1C(=O)N(C2CCC2)CCN1Cc1ccc(-c2cccc(F)c2F)nn1 [Example 21, 1-cyclobutyl-4-((6-(2,3-difluorophenyl)pyridazin-3-yl)methyl)piperazine-2,3-dione]
  EC50: 14 nM

## O=c1c(=O)n(C2(CF)CC2)ccn1Cc1cc(-c2ccccn2)no1 [Example 225, 1-(1-(fluoromethyl)cyclopropyl)-4-((3-(pyridin-2-yl)isoxazol-5-yl)methyl)-1,4-dihydropyrazine-2,3-dione]
  EC50: 41 nM

## O=C1C(=O)N(C2CCCC2)CCN1Cc1ncc(-c2cc(F)ccn2)cn1 [Example 343, 1-cyclopentyl-4-((5-(4-fluoropyridin-2-yl)pyrimidin-2-yl)methyl)piperazine-2,3-dione]
  EC50: 133 nM

## O=C1C(=O)N(C23CC(C2)C3)CCN1Cc1ccc(-n2nccn2)cc1 [Example 406, 1-(4-(2H-1,2,3-triazol-2-yl)benzyl)-4-(bicyclo[1.1.1]pentan-1-yl)piperazine-2,3-dione]
  EC50: 15 nM
